Measurements from patent publication US9364550B2, “Bioactive carbon nanotube composite functionalized with B-sheet polypeptide block copolymer, and preparation method thereof” (INDUSTRY-ACADEMIC COOPERATION FOUNDATION, YONSEI UNIVERSITY, priority 2011, dated 2016).
Ends that are not written are not given here. Ebes = not defined here

How the values were obtained:
Format in all cases: physicochemical
[1] = Circular dichroism of linear peptide and peptide/SWCNT hybrid; conditions: CD, molar ellipticity at 215 nm, peptide without SWCNTs
Experimental: (§1) CD spectra were measured using a Chirascan™ circular dichroism spectrometer equipped with a Peltier temperature controller (Applied Photophysics., Ltd.). The spectra were recorded from 250 nm to 190 nm using a 2 mm path-length cuvette. Scans were repeated five times and averaged. The molar ellipticity was calculated per amino acid residue. Before measurement, 5 μM solutions of peptides with and without SWCNTs were incubated for 12 h in 20 mM or 60 mM NaCl at room temperature.

[2] = Solubilization of SWCNTs by linear β-sheet block copolypeptide with sonication; conditions: 5 μg SWCNTs, 0.3 mL peptide solution, pure water, sonication 15 min at room temperature
Experimental: First, it was confirmed whether this potential β-sheet forming peptide can bind to and then solubilize SWCNTs in pure water. The arc-produced SWCNTs were suspended in tetrahydrofuran (THF) and equal amounts of the SWCNTs (5 μg) were added into microcentrifuge tubes. After THF evaporation, the block copolypeptide solution (0.3 mL) was added and the mixture was subjected to sonication at room temperature for 15 min.
Next, the influence of ionic strength on the peptide/SWCNT hybrid formation was investigated. The β-sheet contents of the block copolypeptide solution increased with increasing NaCl concentration, and the increase reached a plateau at a salt concentration of around 50-60 mM (see FIG. 5).
In contrast, the granules became smaller when salt was added (50 mM) and the solution was subjected to a vortex (the right image in a) of FIG. 3). Upon soniciation of both mixtures, a significant difference was evident.
An investigation was made as to whether preassembled β-sheet nanoribbons could be disintegrated and used to solubilize CNTs in the presence of SWCNTs (path 4 or path 5 in FIG. 1).

[3] = Circular dichroism of cyclic peptide with and without SWCNTs (α-helix stabilization); conditions: 50 μM peptide without SWCNTs
Experimental: as §1, with “260” for “250”, “200” for “190”, “50” for “5”, “24” for “12”, “150” for “20”, “KF, and another 50 μM peptide solution without SWCNTs were incubated for 24 h in distilled water.” for “or 60 mM NaCl at room temperature.”
In order to verify the function of SWCNTs as protein mimics supporting the α-helical structures, CD spectra were measured on a 50 μM solution of peptide 2 of Synthesis Example 2 in pure water and a solution of peptide 2 in a 150 mM aqueous salt solution (spectra b (dotted line) and c (alternate long and two short dashes line) of FIG. 10, respectively). Peptide 2 at a concentration of 50 μM was added to a 150 mM aqueous salt solution containing 20 μg of SWCNTs, followed by sonication to form peptide/SWCNT hybrids, which were used for CD spectrum measurement (spectrum a (solid line) of FIG. 10).

| Substance | NaCl concentration at which the increase of β-sheet content reached a plateau [1] [mM] | peptide concentration at which most of the SWCNTs were suspended [2] | stabilization of α-helical structure ([3]; 150 mM aqueous salt solution) | stabilization of α-helical structure ([3]; pure water) |
| --- | --- | --- | --- | --- |
| GRKKRRQRRRPPQGSGGFKFEFKFEFKFE [block copolypeptide] | 50 to 60 | around 12.5 μM | – | – |
| cyclo [-WKWEWKWEWKWEW-Ebes-GTRQARRNRRRRWRR-Ebes-C-] (chain 2 GTRQARRNRRRRWRR-{Ebes-Cys}; reading uncertain; also: cyclic: chain 1-Ebes-chain 2-Ebes-Cys, closed head-to-tail, head-to-tail to a chain's N/C-terminus, printed as cyclo [-WKWEWKWEWKWEW-Ebes-GTRQARRNRRRRWRR-Ebes-C-]) [peptide 2] | – | – | failed to stabilize the α-helical structures | failed to stabilize the α-helical structures |
